From patent US12564580B2, “Mitochondria-targeted isoketal/isolevuglandin scavengers and uses thereof” (Vanderbilt University, priority 2020, dated 2026)

Assays:
[1] = tested on: C57Bl/6J mice, Ang II-induced hypertension; assay: Blood pressure in angiotensin II model of hypertension (tail-cuff and telemetry); format: in vivo, mouse; conditions: same molar dose of untargeted 2HOBA (0.17 mmol/L) in drinking water
Text: FIGS. 10A-D show the effect of mito2HOBA on angiotensin II-induced hypertension and accumulation of mitochondrial isoLGs protein adducts. (A) Blood pressure tail-cuff measurements in male Sham or angiotensin II-infused mice supplied with mito2HOBA in drinking water (0.1 g/L) or equimolar amount of untargeted analog 2HOBA (0.17 mmol/L). (B) Telemetry studies of blood pressure in angiotensin II-infused mice supplied with mito2HOBA or plain water as a vehicle. (C) Representative LC/MS/MS chromatograms of isoLG-Lysyl-Lactam adduct; (D) isoLG-Lys-Lactam levels in kidney mitochondria isolated from Sham or angiotensin II-infused mice supplied with mito2HOBA. Results are mean±SEM. *P<0.01 vs Sham, **P<0.01 vs Ang II (n=8).
Hypertension was induced by angiotensin II ([…]) as described previously. To test the therapeutic potential of scavenging of mitochondrial isoLGs, wild-type C57B1/6J male and female mice (Jackson Labs) received saline or angiotensin II minipump placement, and provided with the plain water (vehicle) or mito2HOBA in the drinking water (0.1 g/liter). Blood pressure was monitored by the telemetry and tail-cuff measurements as previously described. The Vanderbilt Institutional Animal Care and Use Committee approved the procedures (Protocol M1700207). Simple randomization was used to select animals for sham, angiotensin II or mito2HOBA groups for equal chance of being allocated to treatment groups.
To test a functional role of mitochondrial isoLGs in hypertension, we used an Ang II model of hypertension, and monitored blood pressure by tail-cuff (FIG. 10A) and telemetry (FIG. 10B). […] Infusion of wild-type C57B1/6J mice with Ang II (0.7 mg/kg/day) increased systolic blood pressure to 162 mm Hg.

[2] = tested on: human aortic endothelial cells (HAEC); assay: Mitochondrial superoxide in human aortic endothelial cells stimulated with angiotensin II plus TNFα (mitoSOX HPLC); format: cell-based
Procedure: FIGS. 9A and B show the effect of mito2HOBA on mitochondrial superoxide and cardiolipin oxidation in human aortic endothelial cells induced by angiotensin II plus TNFα. (A) Mitochondrial superoxide was measured by HPLC analysis of mitoSOX-superoxide specific product, mito-2-hydroxyethidium (Mito-2OH-Et+). […] (B) Cardiolipin oxidation induced by Angiotensin II+TNFα measured my LC/MS. […] Data are mean±SEM. *P<0.01 vs Control, **P<0.01 vs Angiotensin II+TNFα (n=4).
Human aortic endothelial cells (HAEC) were purchased from Lonza (Chicago, IL) and cultured in EGM-2 medium supplemented with 2% FBS but without antibiotics. On the day before the study, the FBS concentration was reduced to 1%.
We tested if mito2HOBA reduces mitochondrial oxidative stress in human aortic endothelial cells (HAEC) stimulated with angiotensin II plus TNFα for 4-hours (FIG. 9). Indeed, supplementation of HAEC with mito2HOBA (50 nM) reduced mitochondrial superoxide production stimulated by TNF[…] and Ang II as measured by accumulation of specific superoxide-MitoSOX product, 2-OH-Mito-Ethidium.

complex II [3] = biological target: complex II (Mus musculus, UniProt Q8K2B3); assay: Glutamate-driven respiration of kidney mitochondria with Complex II inhibitor malonate; conditions: malonate 5 mM, Glutamate+Malate
Procedure: To study the mitochondrial function, the combination of glutamate and malate (GM) or succinate was used as substrates. Since glutamate can be converted via transamination to α-ketoglutarate and further to succinate, the present inventors used complex II inhibitor malonate to define specific complex I respiration. The basal respiration (1) was measured in mitochondria supplemented with respiratory substrates. Then ADP was added to measure the coupled respiration (2). The proton leak (3) was determined after addition of complex V inhibitor oligomycin A. The uncoupled respiration (4) was measured after supplementation with CCCP. Finally, antimycin A plus rotenone were added to assess non-mitochondrial respiration (5) as described previously [32].
Mitochondria were isolated from 12-14-week-old male C57BL6/6J mouse kidneys. For respiration studies, electrons were entered at either complex I (glutamate+malate as substrate) or complex II (succinate as substrate). […] Since kidney mitochondria are much less studied than mitochondria from other organs, the present inventors used the specific inhibitor of Complex II malonate (5 mM) to evaluate the alternative pathways for glutamate oxidation. The Complex II mediated respiration was defined as malonate-inhibited oxygen consumption while Complex I specific respiration was defined as malonate resistant oxygen consumption. […]

[4] = tested on: Intact mouse kidney mitochondria, complex I-mediated respiration; assay: Respiration of isolated kidney mitochondria with complex I substrates glutamate+malate after acute IsoLG/IsoLG-PE treatment; format: biochemical
complex I = assay: Complex I activity in mouse kidney mitochondrial lysate; conditions: mitochondrial lysates treated with a bolus of IsoLG
Procedure: (C) Mouse kidney mitochondrial lysate was acutely treated with DMSO (Control), ethanolamine, spermine, L-lysine, IsoLG (1.5 μM) or IsoLG modified-ethanolamine (IsoLG-ETN, 1.5 μM), -spermine (IsoLG-Sper, 1.5 μM), L-lysine (IsoLG-Lys, 1.5 μM), -phosphatidylethanolamine (IsoLG-PE, 1.5 μM) prior to measurements of complex I activity expressed as a % of Control (100%).
OXPHOS specific enzyme activities in submitochondrial particles (SMP) were measured using a Varian Cary 300 Bio UV/Vis spectrophotometer with temperature controlling cell holder. Briefly, SMP were prepared by sonication of isolated organelles. Complex I activity was monitored in triplicate samples as the reduction of 10 μM decylubiquinone at 272 nm by 15 μg of mitochondrial protein with 40 μM NADH.
To test this hypothesis, the present inventors studied the activity of complex I and complex II in mitochondrial lysates treated with a bolus of IsoLG.

[5] = tested on: Intact mouse kidney mitochondria, complex II respiration; assay: Respiration of isolated kidney mitochondria with complex II substrate succinate after acute IsoLG/IsoLG-PE treatment; format: biochemical; conditions: acute addition of a low dose (0.5 μM printed elsewhere in the source)
Procedure: FIGS. 1A-1C show acute treatment with IsoLG or IsoLG-PE impairs mitochondrial respiration. (A) Intact mouse kidney mitochondria were incubated (5 min) with ethanol as vehicle (Sham), IsoLG (20 μM) or IsoLG-PE (20 μM) and then diluted with respiration buffer 20-fold prior to addition of Glutamate and Malate, ADP (50 μM) and measurements of oxygen consumption in State III. *P<0.001 vs Sham, **P<0.03 vs IsoLG. (B) Oxygen consumption in the presence of complex I substrates Glutamate+Malate and ADP (State III) and Respiratory Control Ratio (State III/State IV, %) in intact kidney mitochondria treated with vehicle, IsoLG (1.5 μM) or IsoLG-PE (1.5 μM) in the respiration chamber. (C) State III respiration and Respiratory Control Ratio (State III/State IV, %) in presence of complex II substrate Succinate and ADP following addition of vehicle, IsoLG (1.5 μM) or IsoLG-PE (1.5 μM) in the respiration chamber.
Complex I is a key component of mitochondrial oxidative phosphorylation. Inactivation of complex I can lead to reduced ATP production and tissue damage. Addition of IsoLG to cells produces both protein—adducts and IsoLG-phosphatidylethanolamine adducts (IsoLG-PE) which can independently contribute to mitochondrial dysfunction. The present inventors tested whether IsoLG or IsoLG-PE could contribute to mitochondrial dysfunction. […]

complex II [6] = biological target: complex II (Mus musculus, UniProt Q8K2B3+Q9CQA3+Q9CXV1+Q9CZB0); assay: Complex II activity in mouse kidney mitochondrial lysate; format: biochemical; conditions: mitochondrial lysates treated with a bolus of IsoLG
complex II (Mus musculus, UniProt Q8K2B3+Q9CQA3+Q9CXV1+Q9CZB0), sequence (Q8K2B3 43-664): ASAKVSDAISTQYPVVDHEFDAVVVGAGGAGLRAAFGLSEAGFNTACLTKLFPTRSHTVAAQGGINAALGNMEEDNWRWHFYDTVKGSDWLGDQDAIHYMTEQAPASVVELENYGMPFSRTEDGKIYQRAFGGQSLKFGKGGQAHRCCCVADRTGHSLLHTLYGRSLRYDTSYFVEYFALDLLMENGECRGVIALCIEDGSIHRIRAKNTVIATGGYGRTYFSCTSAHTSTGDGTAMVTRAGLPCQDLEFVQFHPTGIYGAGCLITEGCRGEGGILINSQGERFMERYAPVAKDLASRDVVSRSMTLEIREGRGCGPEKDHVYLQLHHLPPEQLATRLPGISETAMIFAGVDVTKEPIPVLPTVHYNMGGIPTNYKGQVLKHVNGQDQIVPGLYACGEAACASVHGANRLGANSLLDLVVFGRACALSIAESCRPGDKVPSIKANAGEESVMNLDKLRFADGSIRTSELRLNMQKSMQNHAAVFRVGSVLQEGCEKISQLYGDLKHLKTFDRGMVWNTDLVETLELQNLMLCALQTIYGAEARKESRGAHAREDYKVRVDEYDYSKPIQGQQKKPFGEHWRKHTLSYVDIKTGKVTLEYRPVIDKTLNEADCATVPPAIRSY
complex II (Mus musculus, UniProt Q8K2B3+Q9CQA3+Q9CXV1+Q9CZB0), sequence (Q9CQA3 31-282): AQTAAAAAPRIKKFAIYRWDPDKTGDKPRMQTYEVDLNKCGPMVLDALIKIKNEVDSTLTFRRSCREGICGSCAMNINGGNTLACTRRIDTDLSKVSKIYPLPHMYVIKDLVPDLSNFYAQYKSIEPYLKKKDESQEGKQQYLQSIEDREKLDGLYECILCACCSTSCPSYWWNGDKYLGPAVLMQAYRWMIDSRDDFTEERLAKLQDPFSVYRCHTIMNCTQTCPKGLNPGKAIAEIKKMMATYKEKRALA
complex II (Mus musculus, UniProt Q8K2B3+Q9CQA3+Q9CXV1+Q9CZB0), sequence (Q9CZB0 30-169): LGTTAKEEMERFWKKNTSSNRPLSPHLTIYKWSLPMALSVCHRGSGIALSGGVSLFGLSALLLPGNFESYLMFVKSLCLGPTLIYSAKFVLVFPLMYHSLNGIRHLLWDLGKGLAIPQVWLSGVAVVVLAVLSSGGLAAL
complex II (Mus musculus, UniProt Q8K2B3+Q9CQA3+Q9CXV1+Q9CZB0), sequence (Q9CXV1 57-159): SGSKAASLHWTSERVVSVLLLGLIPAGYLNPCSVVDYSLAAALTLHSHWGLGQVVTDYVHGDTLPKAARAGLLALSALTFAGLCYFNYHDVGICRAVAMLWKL

complex II (Mus musculus, UniProt Q8K2B3), sequence (Q8K2B3 43-664): as the sequence (Q8K2B3 43-664) above
complex II (Mus musculus, UniProt Q8K2B3), sequence (Q9CQA3 31-282 partner): as the sequence (Q9CQA3 31-282) above
complex II (Mus musculus, UniProt Q8K2B3), sequence (Q9CZB0 30-169 partner): as the sequence (Q9CZB0 30-169) above
complex II (Mus musculus, UniProt Q8K2B3), sequence (Q9CXV1 57-159 partner): as the sequence (Q9CXV1 57-159) above

NCc1ccccc1O [2HOBA, 2-hydroxybenzylamine]
Ang II-induced hypertension [1]: did not attenuate
mitochondrial superoxide production ([2]; 50 nM, angiotensin II plus TNFα for 4-hours): did not affect
mitochondrial superoxide overproduction ([2]; cultured HAEC, concentration not stated (discussion)): partially attenuates

O=C(O)CC(=O)O [Malonate, malonate]
inhibition of glutamate-driven respiration (complex II [3]): 58%

15-E2-isolevuglandin [15-E2-IsoLG]
inhibition of state 3 respiration ([4]; 20 μM, five-minute treatment of isolated mitochondria, complex I substrates glutamate+malate): 74%
complex I-mediated respiration ([4]; acute addition of a low dose (0.5 μM printed elsewhere in the source), intact mitochondria): significantly attenuated
complex I inactivation (complex I): 74%
complex II respiration [5]: much less affected
complex II activity inhibited (complex II [6]): 21%

NCc1ccc(O)cc1 [4HOBA, 4-hydroxybenzylamine]
mitochondrial superoxide (mitochondrial oxidative stress) ([2]; 4HOBA high dose 10 μM, angiotensin II plus TNFα): did not protect
